Reference: PMC10555500, “Evaluation of the Antiproliferative Properties of CpRu Complexes Containing N-Methylated Triazaphosphaadamantane Derivatives” (Bioinorganic Chemistry and Applications, 2023)

Target: human serum albumin (HSA) (Homo sapiens, UniProt P02768)
Assay: Binding to human serum albumin by steady-state and time-resolved Trp214 fluorescence
Experimental: (§1) The stock solutions of HSA were freshly prepared for each experiment by gently dissolving protein in PBS pH 7.4 (tablets from Fisher) for 1 hour to allow protein to completely hydrate. The concentration of the protein in the stock solutions was determined by spectrophotometry using the molar absorption coefficient at 280 nm ε280(HSA) = 36,850 M^−1·cm^−1 [38].
In each essay, all spectroscopic measurements were carried out on individually prepared samples to ensure the same preincubation time at (37.0 ± 0.1)°C, the same % of DMSO in the final samples, and the same exposure to excitation light and to avoid the need for dilution corrections. Moreover, for a direct titration protocol, a highly concentrated stock solution of the compounds in the buffer would be required, which would raise solubility issues. Dimethylsulfoxide (DMSO, from Fisher) was used to prepare concentrated stock solutions of each complex, followed by appropriate dilution to obtain the desired concentration. The DMSO content was kept at 2% (v/v) in PBS pH 7.4 in all samples. Dilutions were carried out immediately before sample preparation.
Fluorescence measurements were performed at 25.0 ± 0.1°C. The final protein concentration in the individually prepared samples (3.72 to 5 μM) was kept constant in each assay, and the complex concentration was varied to obtain desired HSA: Ru-complex molar ratios ranging from 1 : 0.25 to 1 : 10. A control sample containing the same amount of protein and final DMSO content and with no complex was also prepared for each experiment. Appropriate blank samples with no protein but with the same complex concentrations were prepared as well for background correction.
The steady-state fluorescence intensity was measured with excitation at 295 nm, and emission spectra were collected with bandwidths of 4 nm for both excitation and emission. For Stern–Volmer plots, the fluorescence intensity with emission at 340 nm was selected because it is near the maximum emission wavelength (so the sensitivity is close to maximum), but it is further to red in relation to the water Raman scattering peak. These values were corrected for the absorption and emission inner filter effects using the absorbance recorded for each sample at the excitation and emission wavelengths used for the steady-state quenching analysis. For time-resolved fluorescence measurements, the single-photon-counting technique was used with nanoLED N-280 (Horiba Jobin Yvon) as the pulsed excitation source (280 nm) and with emission collected at 350 nm (13 nm emission bandwidth), eliminating the contribution of the emission by tyrosine residues.
The experimental fluorescence intensity decays of HSA in buffer solution can be described by a sum of exponentials:(1) It=∑i=1npiexp−t/τi, where pi and τi are the pre-exponential factors and lifetime of component i, respectively. The amplitude or normalized pre-exponential of each lifetime component αi is pi/Σipi with Σiαi = 1. Fluorescence decays were analysed by an iterative deconvolution method using the TRFA Data Processor software (version 1.4; Minsk, Belarus), and the instrument response function was obtained using scattering by a colloidal suspension of silica (Ludox®, Sigma-Aldrich) diluted in water. Criteria for judging the quality of the fit were reduced χ^2 close to 1 and a random distribution of weighted residuals and residual autocorrelation.
To evaluate changes in the quantum yield by processes affecting the fluorescence lifetimes of HSA, the amplitude-weighted mean fluorescence lifetime ( τ¯ ) was calculated using the following equation:(2) τ¯=∑i=1nαiτi.
as §1, with “dissolving the” for “dissolving”, “allow the” for “allow”, “of” for “of the”, “M^−1 cm^−1.[8] […]” for “M^−1·cm^−1 [38].”

Chain of human serum albumin (HSA) (P02768 25-609): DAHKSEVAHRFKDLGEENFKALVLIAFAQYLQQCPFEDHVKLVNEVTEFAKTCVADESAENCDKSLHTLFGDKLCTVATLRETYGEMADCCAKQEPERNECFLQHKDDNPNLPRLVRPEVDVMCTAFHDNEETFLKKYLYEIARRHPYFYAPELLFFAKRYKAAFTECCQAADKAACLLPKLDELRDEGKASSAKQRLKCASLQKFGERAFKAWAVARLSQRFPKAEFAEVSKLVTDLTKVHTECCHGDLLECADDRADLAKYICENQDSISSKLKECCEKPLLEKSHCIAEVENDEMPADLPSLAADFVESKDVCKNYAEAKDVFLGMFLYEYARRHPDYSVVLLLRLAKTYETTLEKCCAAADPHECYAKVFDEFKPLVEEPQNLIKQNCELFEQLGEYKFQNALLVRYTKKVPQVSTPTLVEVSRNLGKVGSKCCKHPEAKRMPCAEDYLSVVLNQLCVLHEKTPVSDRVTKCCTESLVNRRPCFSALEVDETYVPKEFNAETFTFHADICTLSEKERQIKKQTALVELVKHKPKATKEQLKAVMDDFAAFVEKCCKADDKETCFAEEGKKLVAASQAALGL

CN1CN2CN(C)C[P]([Ru+2]([P](c3ccccc3)(c3ccccc3)c3ccccc3)[P](c3ccccc3)(c3ccccc3)c3ccccc3)(C1)C2.O=S(=O)([O-])C(F)(F)F.[Cl][Pd][Cl].c1cc[cH-]c1 [Compound 11, [RuCp(PPh3)2-µ-dmoPTA-1κP-2κ^2N,N′-PdCl2](CF3SO3)]
Emission intensity of Trp214 relative to value in the absence of compound (20 µM compound (1:4 HSA:compound), 24 h, λem 340 nm): ~40% | Type of quenching (HSA-Trp214 fluorescence): “Dynamic” and static | Log K′B (PBS pH 7.4/2% DMSO, 24 h at 37°C): 4.66 ± 0.07 | K′B (conditional binding constant) (PBS pH 7.4/2% DMSO, 24 h at 37°C, fluorescence lifetime Stern–Volmer): 4.58 ± 0.33 × 10^4 M^−1 | Concentration above which aggregate formation with HSA is seen (absorption spectra, only in the presence of HSA): higher than 10 µM | Spectral shift of Trp214 emission (steady-state emission, 24 h incubation): small blueshift | Effect on amplitude-weighted mean fluorescence lifetime of HSA-Trp214 (time-resolved fluorescence, λem 350 nm): decreased
